# System: human colon tumour cell line HT29
# Test: Cellular Assay (phosphohistone H3 Ser10 mitotic marker, HT29)
# Format: cell-based
# Conditions: HT-29, 24 h, HT29 cells, read-out: IC50 (cellular assay, phosphohistone H3)
row,IC50 [nM],Compound
1,< 300,"COc1cc(C(=O)NC2CCN(C)CC2)c(F)cc1Nc1ncc2c(n1)N(C1CCCC1)CC(C)(C)C(=O)N2C [Example 361, 4-[(2-cyclopentyl-4,4,6-trimethyl-5-oxo-2,6,9,11-tetrazabicyclo[5.4.0]undeca-7,9,11-trien-10-yl)amino]-2-fluoro-5-methoxy-N-(1-methyl-4-piperidyl)benzamide]"
2,< 300,"CN1C(=O)C2(CC2)CN(C2CCCC2)c2nc(Nc3cc(F)c(C(=O)NCCN4CCCC4)cc3F)ncc21 [Example 397, 4-(9′-cyclopentyl-5′-methyl-6′-oxo-5′,6′,8′,9′-tetrahydrospiro[cyclopropane-1,7′-pyrimido[5,4-b][1,4]diazepine]-2′-ylamino)-2,5-difluoro-N-(2-pyrrolidin-1-ylethyl)benzamide]"
3,< 1000,"CN1CCC(NC(=O)c2cc(F)c(Nc3ncc4c(n3)N(C3CCCCC3)CCC(=O)N4C)cc2Cl)CC1 [Example 411, 2-chloro-4-[(2-cyclohexyl-6-methyl-5-oxo-2,6,9,11-tetrazabicyclo[5.4.0]undeca-7,9,11-trien-10-yl)amino]-5-fluoro-N-(1-methyl-4-piperidyl)benzamide]"
4,< 300,"COc1cc(C(=O)NCCN(C)C)ccc1Nc1ncc2c(n1)N(C1CCCC1)CC(C)(C)C(=O)N2C [Example 359, 4-[(2-cyclopentyl-4,4,6-trimethyl-5-oxo-2,6,9,11-tetrazabicyclo[5.4.0]undeca-7,9,11-trien-10-yl)amino]-N-(2-dimethylaminoethyl)-3-methoxy-benzamide]"
5,< 300,"COc1cc(C(=O)NCCN2CCCC2)ccc1Nc1ncc2c(n1)N(C(C)C)CC1(CC1)C(=O)N2C [Example 312, 4-(9′-isopropyl-5′-methyl-6′-oxo-5′,6′,8′,9′-tetrahydrospiro[cyclopropane-1,7′-pyrimido[5,4-b][1,4]diazepine]-2′-ylamino)-3-methoxy-N-(2-(pyrrolidin-1-yl)ethyl)benzamide]"
6,< 300,"COc1cc(C(=O)NCCN2CCCC2)ccc1Nc1ncc2c(n1)N(C1CCCC1)CC1(CC1)C(=O)N2C [Example 384, 4-(9′-cyclopentyl-5′-methyl-6′-oxo-5′,6′,8′,9′-tetrahydrospiro[cyclopropane-1,7′-pyrimido[5,4-b][1,4]diazepine]-2′-ylamino)-3-methoxy-N-(2-pyrrolidin-1-ylethyl)benzamide]"
7,< 300,"COc1cc(C(=O)N[C@@H]2CCN(C)C2)c(F)cc1Nc1ncc2c(n1)N(C1CCCC1)CC(C)(C)C(=O)N2C [Example 364, 4-[(2-cyclopentyl-4,4,6-trimethyl-5-oxo-2,6,9,11-tetrazabicyclo[5.4.0]undeca-7,9,11-trien-10-yl)amino]-2-fluoro-5-methoxy-N-[(3R)-1-methylpyrrolidin-3-yl]benzamide]"
8,< 30000,"CN1C(=O)CCN(C2CCCC2)c2nc(Nc3cccc(-c4ccccc4)c3)ncc21 [Example 171, 6-cyclopentyl-2-methyl-9-[(3-phenylphenyl)amino]-2,6,8,10-tetrazabicyclo[5.4.0]undeca-8,10,12-trien-3-one]"
9,< 300,"CCN1CC[C@@H](NC(=O)c2ccc(Nc3ncc4c(n3)N(C3CCCC3)CC(C)(C)C(=O)N4C)c(OC)c2)C1 [Example 369, 4-[(2-cyclopentyl-4,4,6-trimethyl-5-oxo-2,6,9,11-tetrazabicyclo[5.4.0]undeca-7,9,11-trien-10-yl)amino]-N-[(3R)-1-ethylpyrrolidin-3-yl]-3-methoxy-benzamide]"

row,Compound,IC50 [nM]
1,"CN1C(=O)CCN(C2CCCCC2)c2nc(Nc3ccc(C(=O)NC4C[C@H]5CCC[C@@H](C4)N5C)cc3F)ncc21 (stereo partly drawn) [Example 417, 4-[(2-cyclohexyl-6-methyl-5-oxo-2,6,9,11-tetrazabicyclo[5.4.0]undeca-7,9,11-trien-10-yl)amino]-3-fluoro-N-[(1S,5R)-9-methyl-9-azabicyclo[3.3.1]non-7-yl]benzamide]",< 300
